Marks after values point to notes of the source that are not given here.
Experiments:
ERα [1] = target: T1, ERα (Homo sapiens, UniProt P03372); assay: Fluorescence polarization competition assay: antagonistic potency and relative binding affinity
T1 sequence (P03372 1-595): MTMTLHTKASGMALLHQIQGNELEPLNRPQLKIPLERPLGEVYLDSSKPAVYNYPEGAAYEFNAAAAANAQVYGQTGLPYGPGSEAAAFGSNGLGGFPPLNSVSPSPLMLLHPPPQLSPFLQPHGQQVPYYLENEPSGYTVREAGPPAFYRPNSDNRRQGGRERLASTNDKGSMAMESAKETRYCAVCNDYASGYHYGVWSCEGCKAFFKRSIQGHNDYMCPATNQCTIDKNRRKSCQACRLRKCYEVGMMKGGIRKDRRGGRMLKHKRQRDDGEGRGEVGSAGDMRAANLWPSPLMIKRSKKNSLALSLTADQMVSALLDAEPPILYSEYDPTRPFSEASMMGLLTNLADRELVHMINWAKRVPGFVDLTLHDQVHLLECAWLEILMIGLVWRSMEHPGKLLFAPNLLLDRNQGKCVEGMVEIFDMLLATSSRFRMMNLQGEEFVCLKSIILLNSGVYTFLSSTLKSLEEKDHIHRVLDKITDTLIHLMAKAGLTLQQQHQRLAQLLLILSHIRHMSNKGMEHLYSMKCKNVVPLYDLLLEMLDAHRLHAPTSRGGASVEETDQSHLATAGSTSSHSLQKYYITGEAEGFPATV

ERβ = ERβ (Homo sapiens, UniProt Q92731); assay: as above
MDA-MB-231 cell lines = assay: MTT antiproliferative assay; assay type: cell-based, human; settings: Homo sapiens, MDA-MB-231; growth inhibition, 48 h; read-out: MDA-MB-231 (IC50 nM)
ERα [2] = target: T1, ERα; assay: ERα down-regulation immunofluorescence assay in MCF-7; assay type: cell-based; settings: ERα downregulation measured in MCF-7; read-out: MCF-7 DR (IC50 nM)
[3] = tested on: progesterone receptor (PR); assay: ERα functional antagonism cell assay (PR as biomarker) in MCF-7; assay type: cell-based; settings: Homo sapiens, MCF7; progesterone receptor as biomarker for ERα antagonism in MCF-7
[4] = tested on: p53 promoter activity (p21 promoter); assay: qChIP of ERα-p53 interaction on the p21 promoter in MCF-7; assay type: cell-based, human
MCF-7 cells = assay: Cell cycle distribution by flow cytometry; assay type: cell-based, human; settings: 24 h
[5] = Serum biochemical markers after treatment of MNU-induced rats; assay type: in vivo, Wistar rats; design: TBC: unit not given here; settings: for ALP (A/L) / ALT (A/L) / AST (U/L) / γ-GT (U/L): serum; for TBC: total bilirubin content
Method in brief: (§1)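 Mammary tumours induced in rats by MNU 50 mg/kg i.p. at day 50; after two weeks, compounds given orally at 5 or 50 mg/kg once daily for six weeks. Serum AST, ALT (340 nm), ALP (405 nm) and bilirubin measured; liver homogenate GSH, CAT, MDA by colorimetry; plasma binding by ultrafiltration at 37°C with BCA protein read-out.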

[6] = Liver oxidative stress markers after treatment of MNU-induced rats; assay type: in vivo, Wistar rats; settings: liver; for CAT: catalase activity; for GSH: reduced glutathione; for SOD (U/mg): superoxide dismutase activity; for TP: total protein content
Method in brief: as §1

[7] = tested on: MNU-induced breast cancer tissue; assay: Histopathology of breast sections; assay type: in vivo, Wistar rats
Method in brief: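 Rats with MNU-induced breast cancer were given selected leads at two concentrations. Breast tissue was examined histopathologically for lobuloalveolar units and epithelial changes, with slides photographed at 200x.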

[8] = rat, in vivo
[9] = MTT antiproliferative assay (neutral control); settings: human
[10] = log of % relative binding affinity, estradiol = 100%

Sequence of ERβ (Q92731 whole entry): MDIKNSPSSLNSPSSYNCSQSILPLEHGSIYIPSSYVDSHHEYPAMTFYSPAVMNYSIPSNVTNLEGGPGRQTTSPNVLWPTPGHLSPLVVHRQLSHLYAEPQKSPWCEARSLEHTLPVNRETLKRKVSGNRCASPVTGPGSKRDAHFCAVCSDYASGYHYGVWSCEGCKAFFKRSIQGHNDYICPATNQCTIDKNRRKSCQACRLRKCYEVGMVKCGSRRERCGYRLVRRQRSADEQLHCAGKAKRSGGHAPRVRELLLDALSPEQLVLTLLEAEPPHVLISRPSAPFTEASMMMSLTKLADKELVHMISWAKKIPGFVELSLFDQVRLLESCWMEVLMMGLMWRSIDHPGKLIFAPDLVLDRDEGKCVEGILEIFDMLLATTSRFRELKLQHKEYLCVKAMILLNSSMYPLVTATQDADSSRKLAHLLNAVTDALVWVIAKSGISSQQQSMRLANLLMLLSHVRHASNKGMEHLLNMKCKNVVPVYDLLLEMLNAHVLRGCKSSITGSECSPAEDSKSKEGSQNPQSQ

In the case of `CC(=O)c1cc(C(=O)O[C@@H]2/C=C/C(=O)O[C@@H](O)CCC/C=C/[C@@H]3C[C@H](O)C[C@H]32)ccc1OCCN1CCCC(O)C1=O` (stereo partly drawn) [Compound 3DPQ-12, (1R,2E,6R,10E,11aS,13S,14aR)-6,13-dihydroxy-4-oxo-4,6,7,8,9,11a,12,13,14,14a-decahydro-1H-cyclopenta[f][1]oxacyclotridecin-1-yl 3-acetyl-4-(2-(3-hydroxy-2-oxopiperidin-1-yl)ethoxy)benzoate], the Ki (ERα [1]; calculated antagonistic (inhibitory) constant, read-out: Ka ERα) is reported as 0.09 nM, the IC50 (ERα [1]; concentration that antagonizes 50% of ERα signaling activity, read-out: ERα (IC50 nM)) is reported as 0.4 ± 0.43 nM and the “logRBA ERα” value (ERα [1]; [10]) is reported as 2.35 ^†,‡,§. For the same compound, the “ERα potency, fold higher than Ral” value (ERα [1]; ratio of IC50 values) was 1.85 fold, the Ki (ERβ; calculated antagonistic (inhibitory) constant, read-out: Ka ERβ) was 50.3 nM and the IC50 (ERβ; concentration that antagonizes 50% of ERβ signaling activity, read-out: ERβ (IC50 nM)) was 89.45 ± 0.31 nM. For the same compound, the “logRBA ERβ” value (ERβ; [10]) was 0.00 ^†,‡,§, the IC50 (MDA-MB-231 cell lines) was 82.84 ± 0.61 nM and the IC50 (ERα [2]) was over 100 nM. For the same compound, the IC50 [3] was over 100 nM, the “p53 promoter activity, fold higher than the one provoked by Ral” value ([4]; higher concentration (1 nM)) was 0.55 fold and the “p53 promoter activity, fold higher than the one provoked by Ral” value ([4]; lower concentration (0.1 nM)) was 0.65 fold. For the same compound, the “Cell Cycle (%) G0/G1” value (MCF-7 cells; 0.1 nM) was 77.83 ± 0.92 *^,†,‡,§ %, the “Cell Cycle (%) G2/M” value (MCF-7 cells; 0.1 nM) was 5.21 ± 2.54 *^,†,‡,§ % and the “Cell Cycle (%) S” value (MCF-7 cells; 0.1 nM) was 16.96 ± 1.23 *^,†,‡,§ %. For the same compound, the “Cell Cycle (%) G0/G1” value (MCF-7 cells; 1 nM) was 80.29 ± 1.24 *^,†,‡,§ %, the “Cell Cycle (%) G2/M” value (MCF-7 cells; 1 nM) was 2.05 ± 1.43 *^,†,‡,§ % and the “Cell Cycle (%) S” value (MCF-7 cells; 1 nM) was 17.67 ± 1.32 *^,†,‡,§ %. For the same compound, the “ALP (A/L)” value ([5]; dose 5 mg/kg) was 132.67±0.43 A/L, the “ALT (A/L)” value ([5]; dose 5 mg/kg) was 50.99±0.84 A/L and the “AST (U/L)” value ([5]; dose 5 mg/kg) was 51.54±0.74 U/L. For the same compound, the “γ-GT (U/L)” value ([5]; dose 5 mg/kg) was 13.53 U/L, the “ALP (A/L)” value ([5]; dose 50 mg/kg) was 121.33±0.23 A/L and the “ALT (A/L)” value ([5]; dose 50 mg/kg) was 59.65±0.84 A/L. For the same compound, the “AST (U/L)” value ([5]; dose 50 mg/kg) was 52.69±0.95 U/L, the “γ-GT (U/L)” value ([5]; dose 50 mg/kg) was 15.54±0.83 U/L and the TBC ([5]; dose 5 mg/kg) was 19.28. For the same compound, the TBC ([5]; dose 50 mg/kg) was 23.43, the CAT ([6]; dose 5 mg/kg) was 14.55±0.51 and the CAT ([6]; dose 50 mg/kg) was 19.46±0.75. For the same compound, the “TBARS” value ([6]; dose 5 mg/kg) was 0.92 nmol/mg, the “TBARS” value ([6]; dose 50 mg/kg) was 1.05 nmol/mg and the “GSH” value ([6]; dose 5 mg/kg) was 8.96 mg/g. For the same compound, the “GSH” value ([6]; dose 50 mg/kg) was 9.02 mg/g, the “SOD (U/mg)” value ([6]; dose 5 mg/kg) was 5.43±0.25 U/mg and the “SOD (U/mg)” value ([6]; dose 50 mg/kg) was 13.32±0.43 U/mg. The “TP” value ([6]; dose 5 mg/kg) was 336.12 g/L, the “TP” value ([6]; dose 50 mg/kg) was 389.35 g/L and the breast section histopathology ([7]; 5 mg/kg of bwt) was “lobuloalveolar unit (LaU) and cuboidal epithelial cells (CE)”. For the same compound, the breast section histopathology ([7]; 50 mg/kg of bwt) was “lobuloalveolar unit (LaU) and cuboidal epithelial cells (CE)”, the “WL after MFD (day 1, mg)” value [8] was 305.06 ± 0.94 mg and the IC50 at 48 h [9] was over 100 nM.

— paper PMC9101642 (Molecules, 2022)
